The results in this text go back to patent publication US8329681B2, “Methods and compositions for the efficient delivery of therapeutic agents to cells and animals” (University of Massachusetts, priority 2005, dated 2012).

The test system of series [1] is HeLa cells. Nature of the series: Cell Titer 96 AQueous One Solution (MTS) cytotoxicity assay. Type of series: cell-based, human. As to conditions: liposomal formulation alone or in combination with DOPE and DOPC as co-lipid. As to the method: (§1) Alternatively, the cytotoxicity of the lipids was measured using the Cell Titer 96® AQueous One Solution Cell Proliferation Assay. The Cell Titer 96® AQueous One Solution Reagent contains a tetrazolium compound [3-(4,5-dimethylthiazol-2-yl)-5-(3-carboxymethoxyphenyl)-2(4-sulfophenyl)-2H-tetrazolium, inner salt; MTS^17] and an electron coupling reagent (phenazine ethosulfate; PES). The cytotoxicity assay was performed in 96 well plates by maintaining the ratio of number of cells to amount of cationic lipid constant as in transfection experiments. MTS was added 24 hours after transfection. Cell Titer 96® AQueous One Solution Reagent (20 ul) was pipetted into each well of the 96-well assay plate containing the samples in 100 μl of culture medium. In case of HeLa cells the plates were incubated for 2 hours, whereas for FL83B cells, plates were incubated for 4 hours at 37° C. in a humidified, 5% CO2 atmosphere. Absorbance was then recorded at 490 nm.
(§2) In a second experiment, FL83B and HeLa cells were plated on 96 well plate 18 hours prior to transfection. Then, liposome was added to each well and incubated for 24 hours. Thereafter, Cell Titer 96® AQueous One Solution Reagent was added and incubated for 4 hours. The MTS tetrazolium compound (Owen's reagent) is bioreduced by viable cells into a colored formazan product that is soluble in tissue culture […]. The absorbance of the formazan was measured at 490 nm with a 96 well plate reader.

In series [2] the test system is CDK9 expression. Nature of the series: Liposome-mediated CDK9 siRNA gene knock-down in FL83B cells, real-time RT-PCR. Type of series: cell-based, rat. Particulars: CDK9 siRNA transfected with liposome. How it is done: Total RNA was extracted from tissues or cultured cells using Trizol (Invitrogen, Carlsbad, Calif.), and real-time RT-PCR for CDK9 and GAPDH mRNA quantification was carried out using 200 ng of total RNA and the QuantiTect SYBR Green RT-PCR Kit (Qiagen, Valencia, Calif.) according to the manufacturer's instructions. The ratio of CDK9 and GAPDH mRNA was calculated and expressed as a group average relative to the control group. The specific probe for detection of CDK9 mRNA levels was designed to the following regions of the CDK9 mRNA ORF, the forward primer 5′ TCGGACCAA AGCCTCACCGTATAA 3′, the reverse primer 5′ […] TTG 3′
FL83B were cultured in F-12K medium (ATCC, Manassas, Va.) with 10% fetal bovine serum at 37° C. in 5% CO2. FL83B were plated on 6-well plates at 70% confluency 24 hours before transfection. […] Gene silencing was monitored by Real-time RT-PCR.
The complexes of CDK9 siRNA (2 μg) and DOATP-Chol (10 μg) or DMTAP-Chol (10 μg) or Transfast-Chol […] were added to Opti-MEM I medium and cells were incubated in the mixture for 6 hr. […] RNA was extracted from cells using Trizol Reagent and real-time RT-PCR for CDK9 and GAPDH mRNA quantification was carried out using 200 ng of total RNA and the QuantiTect SYBR Green RT-PCR Kit. The ratio of CDK9 and GAPDH mRNA was calculated and expressed as a group average relative to the control group. […]
(In qPCR the cycle at which signal appears reflects the starting amount.)

In series [3] the test system is FL83B cells. The experiment in a line: Cell Titer 96 AQueous One Solution (MTS) cytotoxicity assay. Type of series: cell-based, rat. Particulars: liposomal formulation alone or in combination with DOPE and DOPC as co-lipid. As to the method:
as §1, §2

As to `CCCCCCCCC=CCCCCCCCC(=O)OC(COC(=O)CCC(=O)OC1CCC2(C)C(=CCC3C2CCC2(C)C(C(C)CCCC(C)C)CCC32)C1)C[N+](C)(C)C.[I-]` (stereo not drawn) [Lipid 8, N,N,N-Trimethyl-N-[2-(9(Z)-octadecanoyloxy),3-succinyloxy(4-cholesteryloxy)-propyl]ammonium iodide], the “cytotoxicity as compared to a control” value in series [1] and in series [3] was “non-toxic” in each case. Also, the “knockdown of CDK9 expression” value in series [2] is 67%.
